In test [1] the target is GABA-A receptor; anion channel. Kind of test: Displacement of [3H]- Diazepam from GABA-A Benzodiazepine receptor of rat forebrain.
In test [2] the target is GABA-A receptor; anion channel. The experiment in a line: Binding affinity at Benzodiazepine receptor of rat forebrain by [3H]- flunitrazepam displacement.
The target in test [3] is T1, GABA-A receptor; anion channel (Mus musculus) (UniProt Q8BHJ7+P26048+Q8QZW7+P50571+Q9R0Y8+P22723+A2AMW3+P62812+Q9JLF1+P26049+P22933+Q9D6F4+P63080+P27681+P16305). The experiment in a line: In vivo percentage inhibition of flunitrazepam binding to Benzodiazepine receptor in mouse fore brain at 30 mg/Kg. The test is classed as organism-based.
Test [4] addresses GABA-A receptor; anion channel. Kind of test: Displacement of [3H]diazepam from GABA-A Benzodiazepine receptor of rat forebrain. On the technique in general: Displacement assays read how much labelled ligand stays bound in the presence of the test substance.
For test [5], the target named is GABA-A receptor; anion channel. The experiment in a line: Displacement of [3H]flunitrazepam from GABA-A Benzodiazepine receptor of rat forebrain.
The test system of test [6] is Rattus norvegicus. The experiment in a line: Antagonism of Diazepam anti-convulsive effects in rats treated with metrazole ip dose at 10 mg/kg, 0/6 rats affected. The format is functional. The following applies: route intraperitoneal.
Test [7] relates to Rattus norvegicus. The experiment in a line: Antagonism of Diazepam anti-convulsive effects in rats treated with metrazole ip dose at 1 mg/kg, 5/6 rats affected. The test is classed as functional. Conditions: route intraperitoneal.
Test [8] concerns Rattus norvegicus. Kind of test: Antagonism of Diazepam anti-convulsive effects in rats treated with metrazole ip dose at 20 mg/kg, 0/6 rats affected. The format is functional. The following applies: route intraperitoneal.
The test system of test [9] is Rattus norvegicus. The experiment in a line: Antagonism of Diazepam anti-convulsive effects in rats treated with metrazole ip dose at 3mg/kg, 1/6 rats affected. The format is functional.
The species named for test [10] is Rattus norvegicus. The experiment in a line: Antagonism of diazepam-induced discriminative stimuli in rats by peroral dose. The test is classed as functional. Conditions: po.
For test [11], the species on record is Rattus norvegicus. Kind of test: Antagonism of diazepam-induced rotarod deficit on peroral dose in rats. The format is functional. Conditions: po. A general note: Falling from the rotarod earlier than controls is read as motor impairment.
In test [12] the target is T1, GABA-A receptor; anion channel (Mus musculus). The following applies: 30 mg/kg.
Description: In vivo percentage inhibition of flunitrazepam binding to mouse fore brain at 30 mg/kg
Test [13] relates to Rattus norvegicus. The experiment in a line: Antagonism of Diazepam anti-convulsive effects in rats treated with metrazole ip dose at 0.3mg/kg, 6/6 rats affected. The test is classed as functional.
Test [14] deals with Rattus norvegicus. Kind of test: Antagonism of Diazepam anti-convulsive effects in rats treated with metrazole ip dose at 1 mg/kg, 2/6 rats affected. The format is functional. The following applies: route intraperitoneal.
Test [15] relates to Rattus norvegicus. Kind of test: Antagonism of Diazepam anti-convulsive effects in rats treated with metrazole ip dose at 3mg/kg, 2/6 rats affected. The format is functional.
For test [16], the system named is Rattus norvegicus. Kind of test: Antagonism of Diazepam anti-convulsive effects in rats treated with metrazole ip dose at 30 mg/kg, 0/6 rats affected. The test is classed as functional. Conditions: route intraperitoneal.
Test [17] relates to Rattus norvegicus. Kind of test: Antagonism of diazepam-induced discriminative stimuli in rats by ip dose. The test is classed as functional.
Test [18] deals with Rattus norvegicus. The experiment in a line: Antagonism of diazepam-induced rotarod deficit on ip dose in rats. The test is classed as functional.
The species entered for test [19] is Rattus norvegicus. The experiment in a line: Antagonism of diazepam-induced rotarod deficit after peroral dose in rats. The format is functional. Conditions: po.
Test [20] relates to Rattus norvegicus. The experiment in a line: Antagonism of Diazepam anti-convulsive effects in rats treated with metrazole ip dose at 1 mg/kg, 3/6 rats affected. The format is functional. The following applies: route intraperitoneal.
Test [21] relates to Rattus norvegicus. The experiment in a line: Antagonism of Diazepam anti-convulsive effects in rats treated with metrazole ip dose at 0.3 mg/kg, 5/6 rats affected. The test is classed as functional. Conditions: route intraperitoneal.
The subject of test [22] is Rattus norvegicus. The experiment in a line: Antagonism of Diazepam anti-convulsive effects in rats treated with metrazole ip dose at 1 mg/kg in rats, 1/6 rats affected. The format is functional. The following applies: route intraperitoneal.

pIC50: −log10 of the molar value.

This is an account of results in ChEMBL document CHEMBL1125732, “Synthesis and benzodiazepine binding activity of a series of novel [1,2,4]triazolo[1,5-c]quinazolin-5(6H)-ones” (J Med Chem, 1991).

In the case of `Oc1nc2ccccc2c2nc(C(F)(F)F)nn12`, the pIC50 in test [1] is less than 6.00.

`Oc1nc2ccc(Cl)cc2c2nc(-c3ccoc3)nn12`: in [2], the negative logarithm of the IC50 (pIC50) is 8.46.

As for `Oc1nc2ccccc2c2nc(-c3ccc(Cl)cc3)nn12`, the negative logarithm of the IC50 (pIC50) in test [1] was less than 5.00.

In [1], `Cn1c(=O)n2nc(-c3ccccc3)nc2c2ccccc21` had a negative logarithm of the IC50 (pIC50) of 6.46. In [3], this molecule showed an inhibition of 55%.

In [3], `Oc1nc2ccccc2c2nc(-c3ccncc3)nn12` registered an inhibition of 19%.

`COc1ccc(-c2nc3c4cc(Cl)ccc4nc(O)n3n2)cc1` showed a pIC50 in test [2] of 8.52.

In test [3], `OCc1nc2c3ccccc3nc(O)n2n1` showed an inhibition of 0%. For the same molecule, in [2], the negative-log IC50 (pIC50) was less than 7.00.

As to `Oc1nc2ccccc2c2nc(-c3cccnc3)nn12`, the pIC50 in test [1] was 6.89. Moreover, the inhibition in [3] was 48%.

Regarding `O=C1C2C=Nc3ccccc3C2=NN1c1ccccc1` (centres undefined) [CGS-8216], the negative logarithm of the IC50 (pIC50) was 9.52 in test [4] and 8.36 in test [5]. The Antagonist effect in the test on Rattus norvegicus [6] is listed as 0; with Rattus norvegicus [7], 5; in the test on Rattus norvegicus [8], 0; with Rattus norvegicus [9] it was 1. Besides, the results for the ED50 in the test filed under Rattus norvegicus [10] and in the test filed under Rattus norvegicus [11] were 1.61 mg/kg and 0.6 mg/kg, respectively. Besides, the inhibition in test [12] worked out at 90%.

Molecule `Oc1nc2ccc(Cl)cc2c2nc(Cc3ccccc3)nn12` registered an inhibition in test [3] of 0%. Also, the negative-log IC50 (pIC50) in test [2] was 7.00.

`Cc1ccc(-c2nc3c4cc(Cl)ccc4nc(O)n3n2)cc1` showed an inhibition in test [3] of 63%. The same molecule gave a pIC50 in test [2] of 6.70.

In turn, `Oc1nc2ccc(Cl)cc2c2nc(-c3ccccc3F)nn12` displayed an inhibition in test [3] of 76%. Further, the Antagonist effect with Rattus norvegicus [13] stood at 6; with Rattus norvegicus [14] it was 2; with Rattus norvegicus [6], 0; in the test with Rattus norvegicus [15], 2; in the test on Rattus norvegicus [16], 0. In addition, the ED50 in the test on Rattus norvegicus [17] amounted to 2.99 mg/kg; in the test listed under Rattus norvegicus [10], 6.51 mg/kg; with Rattus norvegicus [18], 6.92 mg/kg; in the test filed under Rattus norvegicus [19], 5.5 mg/kg. This molecule also had a pIC50 in test [2] of 9.40.

`CCOc1nc2c3ccccc3nc(O)n2n1` had an inhibition in [3] of 0%. Besides, the negative logarithm of the IC50 (pIC50) in test [2] was 8.60.

`Oc1nc2ccc(Cl)cc2c2nc(C3CCCO3)nn12` (centres undefined) showed a pIC50 in test [2] of less than 7.00.

In turn, `Cn1c(=O)n2nc(-c3cccnc3)nc2c2ccccc21` showed a negative logarithm of the IC50 (pIC50) in test [1] of less than 5.00.

`Oc1nc2c(Cl)cc(Cl)cc2c2nc(-c3ccccc3)nn12` showed a negative-log IC50 (pIC50) in [1] of 6.70. Besides, the inhibition in test [3] came out at 6%.

For the molecule `Oc1nc2ccccc2c2nc(-c3ccccc3F)nn12`, in test [3], the inhibition turned out to be 41%. In addition, the pIC50 in [2] was 9.40.

Consider `Oc1nc2ccccc2c2nc(-c3ccccc3)nn12`, for which, in [1], the pIC50 is 8.40. For the same molecule, the inhibition in [3] was found to be 55%.

Regarding `COc1cc(-c2nc3c4cc(Cl)ccc4nc(O)n3n2)cc(OC)c1OC`, in test [2], the pIC50 was less than 6.00.

`Cn1c(=O)n2nc(C(F)(F)F)nc2c2ccccc21`: the negative logarithm of the IC50 (pIC50) in test [1] was less than 6.00.

`Oc1nc2ccc(Cl)cc2c2nc(-c3ccco3)nn12` came in with an inhibition in test [3] of 15%. Also, in test [2], the pIC50 was 9.22.

In test [2], `CN1CCCC(c2nc3c4cc(Cl)ccc4nc(O)n3n2)C1` (centres undefined) had a pIC50 of less than 6.00.

In the case of `Oc1nc2ccc(Cl)cc2c2nc(-c3ccccc3)nn12`, the inhibition in [3] was determined as 72%. The Antagonist effect turned out to be 6 with Rattus norvegicus [13]; 3 in the test with Rattus norvegicus [20]; 0 in the test with Rattus norvegicus [6]; 2 in the test with Rattus norvegicus [15]; 0 in the test with Rattus norvegicus [16]. For the same molecule, the ED50 in the test with Rattus norvegicus [18] came to 26 mg/kg; in the test listed under Rattus norvegicus [19], 2.8 mg/kg. This molecule also gave a pIC50 in [2] of 8.10.

Regarding `Oc1nc2ccc(Cl)cc2c2nc(-c3ccccn3)nn12`, the pIC50 in [1] was 7.00.

Molecule `O=c1[nH]c2ccccc2c2nc(-c3ccncc3)nn12` had a pIC50 in test [1] of 6.70.

Regarding `Oc1nc2ccc(Cl)cc2c2nc(-c3cccc(F)c3)nn12`, in [3], the inhibition was 31%. Further, the Antagonist effect with Rattus norvegicus [21] was determined as 5; in the test with Rattus norvegicus [22], 1; with Rattus norvegicus [6], 0; in the test on Rattus norvegicus [15] it was 2; with Rattus norvegicus [16] it was 0. This molecule also returned a 50% effective dose (ED50) with Rattus norvegicus [18] of more than 30 mg/kg. For the same molecule, in test [2], the pIC50 is 8.40.

`Oc1nc2ccc(Cl)cc2c2nc(-c3ccc(F)cc3)nn12`: in [3], the inhibition turned out to be 52%. Besides, the pIC50 in test [2] was 7.70.

As for `Oc1ccc(-c2nc3c4cc(Cl)ccc4nc(O)n3n2)cc1`, in test [3], the inhibition worked out at 0%. Further, the pIC50 in test [2] was 9.52.

In turn, `Oc1nc2ccc(Cl)cc2c2nc(-c3cccs3)nn12` had an inhibition in [3] of 21%. This molecule also showed a negative logarithm of the IC50 (pIC50) in test [2] of 9.22.

In the case of `CN1C(=O)CN=C(c2ccccc2F)c2cc([N+](=O)[O-])ccc21` [FLUNITRAZEPAM], the pIC50 in [4] is 8.82.

`Oc1nc2ccc(Cl)cc2c2nc(-c3ccc(C(F)(F)F)cc3)nn12` gave a pIC50 in test [2] of less than 6.00.

Consider `Oc1nc2ccc(Cl)cc2c2nc(-c3cccnc3)nn12`, for which the pIC50 in [1] was 8.00. The molecule also had an inhibition in test [3] of 24%.

The pIC50 is the negative decadic logarithm of the IC50, by convention in mol/L. Usually inhibition stands for the relative decrease from the control value, in per cent. High values mean a response far below the control, low ones a response near the control. The term ED50 denotes the midpoint of the dose-response relation. Higher therefore signals weaker potency.
